In patent US8822517B2, “Arylosulfonamides for the treatment of CNS diseases” (Adamed SP. Z O.O., priority 2010, dated 2014):

Tests used:
dopaminergic D3 receptor = dopaminergic D3 receptor (Homo sapiens, UniProt P35462); experiment: Binding assay D3 (h), [3H]methyl-spiperone, CHO cells; set-up: expressed in transfected cells; host or cells: CHO cells; details: read-out: D3 [%]
Summary of the method: (§1)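 Specific ligand binding was taken as total minus non-specific binding, with the latter defined in the presence of surplus unlabelled ligand. Each compound was tested at a single 1×10^−6 M concentration.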

sigma σ receptor = experiment: Binding assay σ (non-selective), [3H]DTG, rat cerebral cortex; details: percent inhibition of control specific binding; compounds tested at 1×10^−6 M
Protocol: (§2) The specific ligand binding to the receptors is defined as the difference between the total binding and the nonspecific binding determined in the presence of an excess of so unlabelled ligand.
(§3) The specific Ligand binding to the receptor is defined as the difference between total and non-specific binding determined in the presence of an excess of unlabelled ligand. The compounds were tested at a concentration of 1×10^−6 M, and scintillation counting was the method of detection of ligand binding.

[1] = molecular target: histaminergic H1 receptor (Homo sapiens, UniProt P35367); experiment: Binding assay H1 (h), [3H]pyrilamine, HEK-293 cells; set-up: expressed in transfected cells; host or cells: HEK-293 cells; details: read-out: H1 [%]
Chain of histaminergic H1 receptor (P35367 whole entry): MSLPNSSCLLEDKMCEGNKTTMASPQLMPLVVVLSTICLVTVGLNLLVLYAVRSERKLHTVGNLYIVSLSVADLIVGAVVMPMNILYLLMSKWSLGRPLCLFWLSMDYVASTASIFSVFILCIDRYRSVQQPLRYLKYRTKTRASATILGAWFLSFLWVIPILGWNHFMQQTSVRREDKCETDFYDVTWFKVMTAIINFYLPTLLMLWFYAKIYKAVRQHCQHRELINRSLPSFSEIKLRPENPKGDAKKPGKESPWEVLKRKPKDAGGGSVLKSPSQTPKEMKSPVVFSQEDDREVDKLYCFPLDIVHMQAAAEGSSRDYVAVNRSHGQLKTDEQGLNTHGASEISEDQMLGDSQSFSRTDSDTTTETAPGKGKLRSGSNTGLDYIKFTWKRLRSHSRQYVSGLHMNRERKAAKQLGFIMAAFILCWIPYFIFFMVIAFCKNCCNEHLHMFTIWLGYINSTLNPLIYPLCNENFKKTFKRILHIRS
Protocol: as §2, §3

adrenergic α2C receptor = molecular target: T1, adrenergic α2C receptor (Homo sapiens, UniProt P18825); experiment: Binding assay α2C (h), [3H]RX 821002, CHO cells; set-up: expressed in transfected cells; host or cells: CHO cells; details: read-out: α2C [%]
T1 sequence (P18825 1-462): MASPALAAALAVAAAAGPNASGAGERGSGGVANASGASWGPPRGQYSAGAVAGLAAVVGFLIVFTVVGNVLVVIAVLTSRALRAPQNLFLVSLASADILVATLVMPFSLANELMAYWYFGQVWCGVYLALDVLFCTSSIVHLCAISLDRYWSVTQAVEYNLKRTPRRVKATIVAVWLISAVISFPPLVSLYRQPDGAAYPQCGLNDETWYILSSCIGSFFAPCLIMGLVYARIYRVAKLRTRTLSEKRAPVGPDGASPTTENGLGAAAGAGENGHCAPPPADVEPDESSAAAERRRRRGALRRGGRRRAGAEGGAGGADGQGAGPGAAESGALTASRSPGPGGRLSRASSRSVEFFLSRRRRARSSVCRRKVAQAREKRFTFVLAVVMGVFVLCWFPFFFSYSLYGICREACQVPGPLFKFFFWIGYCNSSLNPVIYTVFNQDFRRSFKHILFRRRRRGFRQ
Protocol: as §2, §3

muscarinic M3 receptor = molecular target: T2, muscarinic M3 receptor (Homo sapiens, UniProt P20309); experiment: Binding assay M3 (h), [3H]4-DAMP, CHO cells; details: read-out: M3 [%]
T2 construct: expressed in transfected cells; host or cells: CHO cells
T2 sequence (P20309 whole entry): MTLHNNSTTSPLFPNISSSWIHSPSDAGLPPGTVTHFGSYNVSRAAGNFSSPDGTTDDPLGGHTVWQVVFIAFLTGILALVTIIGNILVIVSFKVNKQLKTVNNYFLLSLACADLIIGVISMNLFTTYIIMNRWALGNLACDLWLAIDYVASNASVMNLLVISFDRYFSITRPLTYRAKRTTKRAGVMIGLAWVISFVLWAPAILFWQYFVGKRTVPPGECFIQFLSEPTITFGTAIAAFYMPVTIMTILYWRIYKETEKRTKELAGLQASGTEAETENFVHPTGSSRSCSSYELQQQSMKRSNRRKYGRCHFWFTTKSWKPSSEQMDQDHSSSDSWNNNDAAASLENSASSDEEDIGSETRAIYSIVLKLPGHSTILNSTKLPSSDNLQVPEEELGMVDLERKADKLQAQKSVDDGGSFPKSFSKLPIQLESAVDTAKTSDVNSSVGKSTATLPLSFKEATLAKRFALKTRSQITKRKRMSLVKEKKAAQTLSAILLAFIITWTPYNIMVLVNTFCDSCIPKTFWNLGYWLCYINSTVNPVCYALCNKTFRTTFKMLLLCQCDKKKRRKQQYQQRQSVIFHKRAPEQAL
Protocol: as §2, §3

dopaminergic D2 receptor = dopaminergic D2 receptor (Homo sapiens, UniProt P14416); experiment: Binding assay D2S (h), [3H]methyl-spiperone, HEK-293 cells; set-up: expressed in transfected cells; host or cells: HEK-293 cells; details: read-out: D2 [%]
Chain of dopaminergic D2 receptor (P14416 1-414 isoform P14416-2): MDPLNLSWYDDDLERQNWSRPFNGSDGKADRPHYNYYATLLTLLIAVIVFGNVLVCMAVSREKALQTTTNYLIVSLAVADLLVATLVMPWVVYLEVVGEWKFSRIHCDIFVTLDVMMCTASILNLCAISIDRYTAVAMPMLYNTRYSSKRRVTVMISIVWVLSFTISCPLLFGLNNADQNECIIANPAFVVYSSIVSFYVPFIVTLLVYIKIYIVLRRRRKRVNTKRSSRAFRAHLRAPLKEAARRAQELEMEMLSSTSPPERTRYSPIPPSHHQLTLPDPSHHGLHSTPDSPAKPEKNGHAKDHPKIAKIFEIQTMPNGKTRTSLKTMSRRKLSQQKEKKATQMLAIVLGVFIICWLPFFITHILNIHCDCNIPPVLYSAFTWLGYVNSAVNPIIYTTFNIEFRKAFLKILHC
Summary of the method: as §1

[2] = molecular target: T3, serotoninergic receptor 5-HT2C (Homo sapiens, UniProt P28335); experiment: Binding assay 5-HT2C (h), [3H]mesulergine, HEK-293 cells; details: read-out: 5-HT2C [%]
T3 construct: expressed in transfected cells; host or cells: HEK-293 cells
T3 sequence (P28335 33-458): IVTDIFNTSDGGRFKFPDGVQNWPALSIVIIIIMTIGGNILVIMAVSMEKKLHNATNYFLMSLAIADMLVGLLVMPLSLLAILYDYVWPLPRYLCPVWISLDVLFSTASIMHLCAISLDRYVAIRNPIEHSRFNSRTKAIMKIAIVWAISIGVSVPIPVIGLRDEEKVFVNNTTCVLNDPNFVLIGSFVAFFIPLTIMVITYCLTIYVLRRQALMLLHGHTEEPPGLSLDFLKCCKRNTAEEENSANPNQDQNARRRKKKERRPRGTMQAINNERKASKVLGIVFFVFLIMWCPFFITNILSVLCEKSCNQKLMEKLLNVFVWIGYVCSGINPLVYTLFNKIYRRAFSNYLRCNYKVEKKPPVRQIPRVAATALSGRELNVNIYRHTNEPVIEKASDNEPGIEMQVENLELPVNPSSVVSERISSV
Protocol: as §2, §3

[3] = molecular target: serotoninergic 5-HT6 receptor (Homo sapiens, UniProt P50406); experiment: Binding assay 5-HT6 (h), [3H]LSD, CHO cells; set-up: expressed in transfected cells; host or cells: CHO cells; details: read-out: 5-HT6
Chain of serotoninergic 5-HT6 receptor (P50406 whole entry): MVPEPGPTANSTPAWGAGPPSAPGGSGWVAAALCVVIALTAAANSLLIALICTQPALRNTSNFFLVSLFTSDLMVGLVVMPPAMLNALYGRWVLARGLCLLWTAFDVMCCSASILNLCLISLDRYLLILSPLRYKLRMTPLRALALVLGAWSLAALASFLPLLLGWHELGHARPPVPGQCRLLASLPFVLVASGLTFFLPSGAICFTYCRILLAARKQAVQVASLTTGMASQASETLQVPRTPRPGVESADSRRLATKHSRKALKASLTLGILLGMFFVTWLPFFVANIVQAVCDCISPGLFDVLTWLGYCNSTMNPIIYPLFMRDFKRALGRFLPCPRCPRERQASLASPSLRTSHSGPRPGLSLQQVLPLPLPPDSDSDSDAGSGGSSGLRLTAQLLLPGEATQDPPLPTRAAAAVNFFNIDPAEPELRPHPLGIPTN
Summary of the method: as §1

adrenergic α1 receptor = experiment: Binding assay α1 (non-selective), [3H]prazosin, rat cerebral cortex; details: percent inhibition of control specific binding; compounds tested at 1×10^−6 M
Summary of the method: as §1

[4] = molecular target: serotoninergic 5-HT2A receptor (Homo sapiens, UniProt P28223); experiment: Binding assay 5-HT2A (h), [3H]ketanserin, HEK-293 cells; set-up: expressed in transfected cells; host or cells: HEK-293 cells; details: read-out: 5-HT2A
Chain of serotoninergic 5-HT2A receptor (P28223 whole entry): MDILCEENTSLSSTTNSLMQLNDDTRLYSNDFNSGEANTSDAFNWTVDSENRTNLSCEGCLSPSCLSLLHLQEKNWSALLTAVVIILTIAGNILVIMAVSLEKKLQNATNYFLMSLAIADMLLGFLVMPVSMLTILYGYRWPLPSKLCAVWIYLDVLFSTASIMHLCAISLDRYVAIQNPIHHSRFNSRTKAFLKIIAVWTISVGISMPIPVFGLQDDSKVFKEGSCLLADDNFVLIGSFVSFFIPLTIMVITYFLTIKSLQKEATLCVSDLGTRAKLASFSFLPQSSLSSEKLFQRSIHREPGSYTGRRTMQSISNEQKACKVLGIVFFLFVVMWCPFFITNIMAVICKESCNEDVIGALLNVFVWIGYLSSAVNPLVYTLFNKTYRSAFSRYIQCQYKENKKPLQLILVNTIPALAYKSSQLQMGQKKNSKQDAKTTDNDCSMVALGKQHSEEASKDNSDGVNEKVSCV
Summary of the method: as §1

[5] = molecular target: serotoninergic 5-HT7 receptor (Homo sapiens, UniProt P34969); experiment: Binding assay 5-HT7 (h), [3H]LSD, CHO cells; set-up: expressed in transfected cells; host or cells: CHO cells; details: read-out: 5-HT7
Chain of serotoninergic 5-HT7 receptor (P34969 whole entry): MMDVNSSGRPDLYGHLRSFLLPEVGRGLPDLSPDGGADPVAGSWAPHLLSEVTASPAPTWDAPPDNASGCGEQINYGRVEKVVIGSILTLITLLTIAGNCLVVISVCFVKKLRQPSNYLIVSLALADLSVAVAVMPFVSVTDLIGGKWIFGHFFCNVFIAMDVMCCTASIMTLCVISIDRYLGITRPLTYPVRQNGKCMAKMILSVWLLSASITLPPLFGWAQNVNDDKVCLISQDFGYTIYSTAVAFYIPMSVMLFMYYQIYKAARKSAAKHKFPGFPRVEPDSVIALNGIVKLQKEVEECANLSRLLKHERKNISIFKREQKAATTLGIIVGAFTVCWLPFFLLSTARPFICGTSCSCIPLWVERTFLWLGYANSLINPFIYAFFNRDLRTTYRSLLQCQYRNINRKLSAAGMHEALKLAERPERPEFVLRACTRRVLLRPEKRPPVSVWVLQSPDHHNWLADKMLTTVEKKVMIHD
Summary of the method: as §1

[6] = molecular target: T4, serotonine transporter (SERT) receptor (Homo sapiens, UniProt P31645); experiment: Binding assay SERT (h), [3H]imipramine, CHO cells; details: read-out: SERT [%]
T4 construct: expressed in transfected cells; host or cells: CHO cells
T4 sequence (P31645 whole entry): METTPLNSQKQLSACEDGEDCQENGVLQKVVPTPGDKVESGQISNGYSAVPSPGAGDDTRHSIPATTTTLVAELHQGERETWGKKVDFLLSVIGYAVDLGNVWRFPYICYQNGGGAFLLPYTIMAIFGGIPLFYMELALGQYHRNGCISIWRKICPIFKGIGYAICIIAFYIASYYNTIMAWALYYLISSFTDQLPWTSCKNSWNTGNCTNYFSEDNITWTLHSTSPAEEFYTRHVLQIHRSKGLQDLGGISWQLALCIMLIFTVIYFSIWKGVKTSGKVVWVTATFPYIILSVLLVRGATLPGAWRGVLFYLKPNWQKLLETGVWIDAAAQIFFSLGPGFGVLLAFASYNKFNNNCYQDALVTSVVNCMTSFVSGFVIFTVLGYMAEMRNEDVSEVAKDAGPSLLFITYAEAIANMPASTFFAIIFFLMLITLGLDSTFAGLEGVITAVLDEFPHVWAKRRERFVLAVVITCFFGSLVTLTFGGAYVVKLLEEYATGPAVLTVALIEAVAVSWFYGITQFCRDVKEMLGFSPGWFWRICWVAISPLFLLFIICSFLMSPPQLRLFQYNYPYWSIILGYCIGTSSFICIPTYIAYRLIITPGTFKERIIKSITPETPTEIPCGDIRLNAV
Summary of the method: as §1

[7] = molecular target: T5, serotoninergic 5-HT1A receptor (Homo sapiens, UniProt P08908); experiment: Binding assay 5-HT1A (h), [3H]8-OH-DPAT, HEK-293 cells; set-up: expressed in transfected cells; host or cells: HEK-293 cells; details: read-out: 5-HT1A
T5 sequence (P08908 1-422): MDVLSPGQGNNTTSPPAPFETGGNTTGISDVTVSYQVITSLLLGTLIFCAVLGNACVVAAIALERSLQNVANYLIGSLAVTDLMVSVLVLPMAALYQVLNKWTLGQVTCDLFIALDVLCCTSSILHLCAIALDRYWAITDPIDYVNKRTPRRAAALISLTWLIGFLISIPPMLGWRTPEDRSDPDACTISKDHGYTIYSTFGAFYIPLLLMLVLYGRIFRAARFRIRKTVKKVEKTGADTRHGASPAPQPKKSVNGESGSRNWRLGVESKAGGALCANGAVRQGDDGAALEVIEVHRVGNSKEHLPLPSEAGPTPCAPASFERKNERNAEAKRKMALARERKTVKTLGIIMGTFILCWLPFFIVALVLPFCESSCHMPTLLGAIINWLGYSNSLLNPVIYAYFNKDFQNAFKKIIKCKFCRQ
Summary of the method: as §1

Chain of dopaminergic D3 receptor (P35462 whole entry): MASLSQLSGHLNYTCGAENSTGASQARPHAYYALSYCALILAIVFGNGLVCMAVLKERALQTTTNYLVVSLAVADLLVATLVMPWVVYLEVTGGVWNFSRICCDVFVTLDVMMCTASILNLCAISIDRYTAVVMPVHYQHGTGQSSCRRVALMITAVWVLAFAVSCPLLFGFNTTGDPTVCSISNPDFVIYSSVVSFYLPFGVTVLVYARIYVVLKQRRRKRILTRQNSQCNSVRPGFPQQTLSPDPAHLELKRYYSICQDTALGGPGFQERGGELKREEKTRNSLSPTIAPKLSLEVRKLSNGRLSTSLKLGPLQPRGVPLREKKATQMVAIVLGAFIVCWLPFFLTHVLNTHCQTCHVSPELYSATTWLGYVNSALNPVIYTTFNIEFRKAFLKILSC

Row | SMILES | inhibition at 1 µM (dopaminergic D3 receptor) | σ [%] (sigma σ receptor) | inhibition at 1 µM [1] | inhibition at 1 µM (adrenergic α2C receptor) | inhibition at 1 µM (muscarinic M3 receptor) | inhibition at 1 µM (dopaminergic D2 receptor) | inhibition at 1 µM [2] | inhibition at 1 µM [3] | α1 [%] (adrenergic α1 receptor) | inhibition at 1 µM [4] | inhibition at 1 µM [5] | inhibition at 1 µM [6] | inhibition at 1 µM [7]
1 | O=S(=O)(NCCCN1CCN(c2nsc3ccccc23)CC1)c1ccc(F)cc1 [Compound 248, N-[3-[4-(1,2-Benzothiazol-3-yl)piperazin-1-yl]propyl]-4-fluorobenzenesulphonamide] | 100% | 64% | 97% | 93% | 13% | 99% | 84% | 98% | 91% | 101% | 98% | 80% | 97%
2 | O=S(=O)(NCCCN1CCN(c2nsc3ccccc23)CC1)c1ccc(F)c(F)c1 [Compound 249, N-[3-[4-(1,2-Benzothiazol-3-yl)piperazin-1-yl]propyl]-3,4-difluorobenzenesulphonamide] | 100% | 68% | 97% | 98% | 9% | 98% | 89% | 101% | 99% | 101% | 100% | 77% | 100%
3 | O=S(=O)(NCCCN1CCN(c2nsc3ccccc23)CC1)c1ccc(Br)cc1 [Compound 252, N-[3-[4-(1,2-Benzothiazol-3-yl)piperazin-1-yl]propyl]-4-bromobenzenesulphonamide] | 98% | 59% | -77% | 95% | 16% | 97% | 84% | 93% | 27% | 101% | 99% | 94% | 99%
4 | O=S(=O)(NCCCN1CCN(c2nsc3ccccc23)CC1)c1cccc(Br)c1 [Compound 253, N-[3-[4-(1,2-Benzothiazol-3-yl)piperazin-1-yl]propyl]-3-bromobenzenesulphonamide] | 99% | 64% | 98% | 102% | 24% | 99% | 89% | 101% | 97% | 101% | 99% | 79% | 99%
5 | CC(C)(C)c1ccc(S(=O)(=O)NCCCN2CCN(c3nsc4ccccc34)CC2)cc1 [Compound 256, N-[3-[4-(1,2-Benzothiazol-3-yl)piperazin-1-yl]propyl]-4-tert-butylbenzenesulphonamide] | 96% | 41% | 94% | 92% | 15% | 97% | 94% | 95% | 87% | 102% | 100% | 93% | 96%
6 | O=S(=O)(NCCCN1CCN(c2nsc3ccccc23)CC1)c1ccc(C(F)(F)F)cc1 [Compound 257, N-[3-[4-(1,2-Benzothiazol-3-yl)piperazin-1-yl]propyl]-4-(trifluoromethyl)benzenesulphonamide] | 100% | 57% | 91% | 99% | 12% | 99% | 83% | 94% | 94% | 101% | 101% | 93% | 99%
7 | O=S(=O)(NCCCN1CCN(c2nsc3ccccc23)CC1)c1cccc(C(F)(F)F)c1 [Compound 258, N-[3-[4-(1,2-Benzothiazol-3-yl)piperazin-1-yl]propyl]-3-(trifluoromethyl)benzenesulphonamide] | 97% | 61% | 97% | 98% | 15% | 95% | 86% | 98% | 97% | 101% | 100% | 80% | 100%
8 | O=S(=O)(NCCCN1CCN(c2nsc3ccccc23)CC1)c1ccc(-c2ccccc2)cc1 [Compound 260, N-[3-[4-(1,2-Benzothiazol-3-yl)piperazin-1-yl]propyl]-4-phenylbenzenesulphonamide] | 98% | 41% | 95% | 99% | 11% | 99% | 90% | 92% | 91% | 102% | 100% | 90% | 96%
9 | O=S(=O)(NCCCN1CCN(c2nsc3ccccc23)CC1)c1cccs1 [Compound 261, N-[3-[4-(1,2-Benzothiazol-3-yl)piperazin-1-yl]propyl]thiophene-2-sulphonamide] | 98% | 57% | 92% | 92% | 15% | 97% | 87% | 83% | −90% | 102% | 100% | 60% | 98%
